Key:
Type in all cases: biochemical
DYRK1A = target: T1, DYRK1A (Homo sapiens, UniProt Q13627); test: Inhibition test on activity of DYRK family, mobility shift assay (MSA), DYRK1A; conditions: ATP 100 μM, FITC-labeled DYRKtide peptide substrate, room temperature 1 hour; for IC50: read-out: Inhibitory Activity 1a (IC50 against DYRK1A)
T1 construct: purchased Carna Biosciences, Inc. 04-130
In short: (§1)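 FITC-DYRKtide phosphorylation in 20 mM HEPES pH 7.5 with MgCl2; ATP in the substrate mix was 100 μM (DYRK1A), 200 μM (DYRK1B), 40 μM (DYRK2) or 20 μM (DYRK3). Reactions ran 1 h at room temperature; inhibition from P/(P+S) versus blank and DMSO control, IC50 by regression on log concentration.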

DYRK1B = target: T2, DYRK1B (Homo sapiens, UniProt Q9Y463); test: Inhibition test on activity of DYRK family, mobility shift assay (MSA), DYRK1B; design: Inhibitory Activity 1b (IC50 against DYRK1B): scale not given here; conditions: ATP 200 μM, FITC-labeled DYRKtide peptide substrate, room temperature 1 hour; for IC50: read-out: Inhibitory Activity 1b (IC50 against DYRK1B)
T2 construct: purchased Carna Biosciences, Inc. 04-131
Method: [Inhibition Test on Activity of DYRK Family (DYRK1A, DYRK1B, DYRK2, and […])]
(Method for Measuring Kinase Activity)
The kinase activity was measured by mobility shift assay (MSA) method using QuickScout Screening Assist™ MSA (commercially available kit manufactured by Carna Biosciences, Inc.). The substrate of the kinase reaction used was an FITC-labeled DYRKtide peptide included in the kit. An assay buffer [20 mM HEPES, 0.01% Triton X-100™, 2 mM dithiothreitol, pH 7.5] was used to create a substrate mixture solution with a substrate (4 μM), MgCl2 (20 mM), and ATP (DYRK1A: 100 μM; DYRK1B: 200 μM; DYRK2: 40 μM; and DYRK3: 20 μM). In addition, kinases (DYRK1A: manufactured by Carna Biosciences, Inc., Cat. No. 04-130; DYRK1B: manufactured by Carna Biosciences, Inc., Cat. No. 04-131; DYRK2; manufactured by Carna Biosciences, Inc., Cat. No. 04-132; and DYRK3; manufactured by Carna Biosciences, Inc., Cat. No. 04-133) were diluted with the assay buffer to prepare enzyme solutions (DYRK1A: 0.2 ng/μL; DYRK1B: 0.08 ng/μL; DYRK2: 0.04 ng/μL; and DYRK3: 0.25 ng/μL). The 10 mM solution of the test compound in DMSO was further diluted with DMSO to 10 levels of the concentration (0.00003 mM, 0.0001 mM, 0.0003 mM, 0.001 mM, 0.003 mM, 0.01 mM, 0.03 mM, 0.1 mM, 0.3 mM, and 1 mM), each of which was subjected to 25-fold dilution with the assay buffer to obtain a drug solution (4% DMSO solution). 5 μL of the drug solution or a control solution (4% DMSO-assay buffer), 5 μL of the substrate mixture solution, and 10 μL of the enzyme solution were mixed in the wells of a polypropylene 384-well plate and allowed to react at room temperature for 1 hour, and then the reaction was quenched by adding 60 μL of the termination buffer included in the kit. Subsequently, the quantities of the substrates (S) and the phosphorylated substrate (P) in the reaction solution were measured using LabChip EZ Reader II system (manufactured by Caliper Life Sciences) according to the protocol of the assay kit.
(Method for Evaluating Inhibitory Activity)
The heights of the peaks of the “substrate” and the “phosphorylated substrate” were expressed as S and P, respectively, and a blank containing the assay buffer instead of the enzyme solution was also measured.
The inhibition rate (%) of the test compound was calculated according to the following equation:
Inhibition rate (%)=(1−(C−A)/(B−A))×100
wherein, A, B, and C represent P/(P+S) of the blank well, P/(P+S) of the control solution well, and P/(P+S) of the compound-containing well, respectively.
The IC50 value was calculated via a regression analysis of the inhibition rate and the test compound concentration (logarithmic value).
The inhibiting activities of representative compounds of the present invention are shown against DYRK1A, DYRK1B, DYRK2, and DYRK3 in Tables 7 and 8. The kinase activity inhibitory effect was indicated with the mark *** at an IC50 value of less than 0.01 μM; the mark ** at 0.01 μM or more and less than 0.1 μM; the mark * at 0.1 μM or more and less than 1 μM; and the mark — at 1 μM or more (N.D. indicates not measured).

DYRK3 = target: T3, DYRK3 (Homo sapiens, UniProt O43781); test: Inhibition test on activity of DYRK family, mobility shift assay (MSA), DYRK3; conditions: ATP 20 μM, FITC-labeled DYRKtide peptide substrate, room temperature 1 hour; for IC50: read-out: Inhibitory Activity 3 (IC50 against DYRK3)
T3 construct: purchased Carna Biosciences, Inc. 04-133
T3 sequence (O43781 1-588): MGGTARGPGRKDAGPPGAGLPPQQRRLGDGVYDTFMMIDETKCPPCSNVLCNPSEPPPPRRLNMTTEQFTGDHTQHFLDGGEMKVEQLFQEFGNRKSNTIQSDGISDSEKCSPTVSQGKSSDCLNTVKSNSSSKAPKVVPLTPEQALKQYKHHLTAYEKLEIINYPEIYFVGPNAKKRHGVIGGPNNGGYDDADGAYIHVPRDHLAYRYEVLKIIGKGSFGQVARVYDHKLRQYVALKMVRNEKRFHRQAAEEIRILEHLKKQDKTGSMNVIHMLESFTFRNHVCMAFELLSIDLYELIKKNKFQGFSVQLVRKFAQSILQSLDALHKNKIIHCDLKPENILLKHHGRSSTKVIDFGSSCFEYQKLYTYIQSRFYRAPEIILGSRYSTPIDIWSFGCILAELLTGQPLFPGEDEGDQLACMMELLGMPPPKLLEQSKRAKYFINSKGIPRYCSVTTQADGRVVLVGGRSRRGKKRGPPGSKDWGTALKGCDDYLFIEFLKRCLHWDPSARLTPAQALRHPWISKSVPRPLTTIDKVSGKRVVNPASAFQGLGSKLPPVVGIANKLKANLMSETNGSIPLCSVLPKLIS
In short: as §1

DYRK2 = target: T4, DYRK2 (Homo sapiens, UniProt Q92630); test: Inhibition test on activity of DYRK family, mobility shift assay (MSA), DYRK2; conditions: ATP 40 μM, FITC-labeled DYRKtide peptide substrate, room temperature 1 hour; for IC50: read-out: Inhibitory Activity 2 (IC50 against DYRK2)
T4 construct: purchased Carna Biosciences, Inc. 04-132
T4 sequence (Q92630 1-601): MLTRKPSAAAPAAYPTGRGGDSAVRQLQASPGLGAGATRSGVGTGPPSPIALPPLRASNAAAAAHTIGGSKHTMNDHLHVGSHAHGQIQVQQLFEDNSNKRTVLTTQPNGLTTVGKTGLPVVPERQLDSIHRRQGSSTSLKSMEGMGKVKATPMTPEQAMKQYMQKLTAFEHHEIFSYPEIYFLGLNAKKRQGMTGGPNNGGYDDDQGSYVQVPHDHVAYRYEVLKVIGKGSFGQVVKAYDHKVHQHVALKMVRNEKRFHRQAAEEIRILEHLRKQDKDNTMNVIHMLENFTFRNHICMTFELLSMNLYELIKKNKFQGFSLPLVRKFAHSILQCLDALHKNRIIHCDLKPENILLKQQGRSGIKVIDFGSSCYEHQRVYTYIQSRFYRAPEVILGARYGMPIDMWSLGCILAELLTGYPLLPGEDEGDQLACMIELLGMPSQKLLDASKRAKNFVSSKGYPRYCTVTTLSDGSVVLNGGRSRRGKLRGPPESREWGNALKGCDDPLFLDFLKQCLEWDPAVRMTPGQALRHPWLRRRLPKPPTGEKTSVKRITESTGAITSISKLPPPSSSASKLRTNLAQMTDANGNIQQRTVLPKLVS
In short: as §1

T2 sequence (Q9Y463 whole entry): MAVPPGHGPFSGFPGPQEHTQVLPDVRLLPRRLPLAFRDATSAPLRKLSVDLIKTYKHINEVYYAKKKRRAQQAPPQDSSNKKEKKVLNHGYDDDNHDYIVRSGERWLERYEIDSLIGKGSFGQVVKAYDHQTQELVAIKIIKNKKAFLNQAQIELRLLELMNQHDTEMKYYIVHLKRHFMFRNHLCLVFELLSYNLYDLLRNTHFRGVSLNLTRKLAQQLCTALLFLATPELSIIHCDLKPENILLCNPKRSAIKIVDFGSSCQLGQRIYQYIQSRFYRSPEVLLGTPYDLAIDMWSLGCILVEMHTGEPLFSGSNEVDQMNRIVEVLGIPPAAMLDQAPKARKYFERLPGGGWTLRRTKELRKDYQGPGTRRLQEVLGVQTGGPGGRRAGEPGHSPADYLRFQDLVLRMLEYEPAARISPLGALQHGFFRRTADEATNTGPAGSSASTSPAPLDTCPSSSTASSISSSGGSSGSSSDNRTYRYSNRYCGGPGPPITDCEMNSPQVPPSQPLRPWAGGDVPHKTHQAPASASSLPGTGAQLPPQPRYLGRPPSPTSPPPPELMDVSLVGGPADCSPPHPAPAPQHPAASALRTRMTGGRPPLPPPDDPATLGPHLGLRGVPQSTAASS

In the case of `CC#CC1CNC(=O)N1c1nc2c3c(ccc2s1)OCCN3` (racemic) [Example 38, (RS)-1-(8,9-dihydro-7H-thiazolo[4′,5′:3,4]benz[1,2-b][1,4]oxazin-2-yl)-5-(prop-1-yn-1-yl)imidazolidin-2-one], the “Inhibitory Activity 1a (IC50 against DYRK1A)” value (“Inhibitory Activity 1a” for short) (DYRK1A) is reported as “* * *”, the “Inhibitory Activity 1b (IC50 against DYRK1B)” value (“Inhibitory Activity 1b” for short) (DYRK1B) is reported as “* * *” and the IC50 (DYRK3) is reported as 100 to 1000 nM. The IC50 (DYRK2) was 100 to 1000 nM.

`CC#CC1CNC(=O)N1c1nc2c3c(ccc2s1)OCCN3C(C)=O` (racemic) [Example 39, (RS)-1-(9-acetyl-8,9-dihydro-7H-thiazolo[4′,5′:3,4]benz[1,2-b][1,4]oxazin-2-yl)-5-(prop-1-yn-1-yl)imidazolidin-2-one] gave an IC50 (DYRK1A) of 100 to 1000 nM, an IC50 (DYRK1B) of no less than 1000 nM and an IC50 (DYRK3) of no less than 1000 nM. It also gave an IC50 (DYRK2) of no less than 1000 nM.

Work on `CC#CC1CNC(=O)N1c1nc2c(ccc3nnn(C)c32)s1` (single isomer, unassigned) [Example 29, 1-(1-methyl-1H-thiazolo[4′,5′:3,4]benz[1,2-d][1,2,3]triazol-7-yl)-5-(prop-1-yn-1-yl)imidazolidin-2-one] yielded an IC50 (DYRK1A) of 100 to 1000 nM, an IC50 (DYRK1B) of 100 to 1000 nM and an IC50 (DYRK3) of no less than 1000 nM. The IC50 (DYRK2) was no less than 1000 nM.

`CC#CC1CNC(=O)N1c1nc2c(ccc3nnn(C)c32)s1` (single isomer, unassigned) [Example 30, 1-(1-methyl-1H-thiazolo[4′,5′:3,4]benz[1,2-d][1,2,3]triazol-7-yl)-5-(prop-1-yn-1-yl)imidazolidin-2-one] was tested, and the “Inhibitory Activity 1a” value (DYRK1A) was “* * *”, the “Inhibitory Activity 1b” value (DYRK1B) was “* * *” and the IC50 (DYRK3) was 100 to 1000 nM. The IC50 (DYRK2) was 100 to 1000 nM.

`CC#C[C@@H]1CNC(=O)N1c1nc2c3c(ccc2s1)OCO3` [Example 2, (R)-1-([1,3]dioxolo[4′,5′:5,6]benzo[1,2-d]thiazol-7-yl)-5-(1-propyn-1-yl)imidazolidin-2-one] was tested, and the “Inhibitory Activity 1a” value (DYRK1A) was “* * *”, the “Inhibitory Activity 1b” value (DYRK1B) was “* * *” and the “Inhibitory Activity 3 (IC50 against DYRK3)” value (DYRK3) was “* *”. For the same compound, the “Inhibitory Activity 2 (IC50 against DYRK2)” value (DYRK2) was “* *”.

In the case of `CC#C[C@H]1CNC(=O)N1c1nc2c3c(ccc2s1)OCO3` [Example 3, (S)-1-([1,3]dioxolo[4′,5′:5,6]benzo[1,2-d]thiazol-7-yl)-5-(1-propyn-1-yl)imidazolidin-2-one], the “Inhibitory Activity 1a” value (DYRK1A) is reported as “* *”, the “Inhibitory Activity 1b” value (DYRK1B) is reported as “* *” and the IC50 (DYRK3) is reported as no less than 1000 nM. The IC50 (DYRK2) was no less than 1000 nM.

With `CC#C[C@@H]1[C@H](C)NC(=O)N1c1nc2c3c(ccc2s1)OCC3` [Example 5, (4S,5R)-1-(7,8-dihydrobenzofuro[4,5-d]thiazol-2-yl)-4-methyl-5-(prop-1-yn-1-yl)imidazolidin-2-one] the “Inhibitory Activity 1a” value (DYRK1A) was “* * *”, the “Inhibitory Activity 1b” value (DYRK1B) was “* * *” and the IC50 (DYRK3) was 100 to 1000 nM. It also gave an IC50 (DYRK2) of 100 to 1000 nM.
